Patent US12285426B2, “Combination serotonin specific reuptake inhibitor and serotonin 1A receptor partial agonist for reducing L-DOPA-induced dyskinesia” (The Research Foundation for The State University of new York, priority 2018, dated 2025)

Legend:
[1] = test system: dyskinesia; conditions: human and animal studies; cited from earlier work
[2] = cited from earlier work
[3] = test system: L-DOPA-induced dyskinesia; test: FIG. 23A-23C: ALO AIMs, vilazodone and/or amantadine with L-DOPA; conditions: for ALO AIMs, combined amantadine and vilazodone: VZD 2.5 mg/kg, AMA 40 mg/kg, L-DOPA
[4] = test system: L-DOPA-induced dyskinesia; test: FIG. 24: LID development over 14 days, vilazodone and/or amantadine; format: in vivo; conditions: for ALO AIMs, LID development: over 14 days
From the text: FIGS. 24B-24E show percent intact+S.E.M. over time for the respective groups.

[5] = test system: lesion-induced motor deficits; test: FIG. 23D: % intact stepping; format: in vivo; conditions: L-DOPA alone or with AMA 40 mg/kg and/or VZD 2.5 mg/kg
[6] = test system: L-DOPA-primed 6-OHDA-lesioned rats; 5-HT1BR; test: Experiment 3: AIMs with 5-HT1BR antagonist NAS-181; format: in vivo, rat; conditions: VZD 10 mg/kg, NAS-181 3.0 mg/kg, LD 6 mg/kg s.c.
Description: All 6-OHDA-lesioned rats (n=17) were tested on the FAS prior to treatment regimens to establish baseline motor performance. Three-weeks post-surgery, all rats were primed with L-DOPA (6 mg/kg, s.c.) for 14 days.
Beginning 10 min post-treatment, a trained and blinded observer assigned a severity score (0-4) to each of the ALO AIMs based on 1 min ratings every 10 min for 3 h: 0, not present; 1, present from 1-29 s; 2, present 30-59s; 3, present all 60 s, but interruptible by a cylinder tap; 4, present 60 s and not interruptible by a cylinder tap.

[7] = test system: MSNs of dyskinetic 6-OHDA-lesioned rats; test: Example 2: electrophysiology of striatal MSNs; format: in vivo, rat; conditions: co-administration with L-DOPA
[8] = test system: 6-OHDA-lesioned rats, L-DOPA-induced dyskinesias; test: Example 2: LIDs scoring in unilateral 6-OHDA-lesioned rats; format: in vivo, rat; conditions: vilazodone 10 mg/kg or escitalopram 12.5 mg/kg + L-DOPA 5 mg/kg, 2 weeks
Description: 6-OHDA-induced dopaminergic lesions: Adult male Sprague-Dawley rats were randomly assigned to groups receiving either a 6-OHDA or sham lesion. […] [[…] 2019]. […] Rats were treated for 5 consecutive days/week (Mon-Fri), for 2 weeks. […] All rats were evaluated three times per week for the presence of L-DOPA-induced dyskinesias (LIDs) (Wed-Fri) and once for the stepping test (Tue). […] Scores were given over 1 min epochs and classified as axial, limb, orolingual and locomotive. […] The severity of each LID was scored using a standard scale. Each dyskinetic behavior was given an intensity and frequency score, which were then multiplied. The average sum of the products of each LID was determined in each animal.

[9] = target: T1, 5-HT1A receptor expressed in SF9 cells (Homo sapiens, UniProt P08908); conditions: cited from earlier work
T1 construct: expressed in transfected cells; host or cells: SF9 cells
T1 sequence (P08908 1-422): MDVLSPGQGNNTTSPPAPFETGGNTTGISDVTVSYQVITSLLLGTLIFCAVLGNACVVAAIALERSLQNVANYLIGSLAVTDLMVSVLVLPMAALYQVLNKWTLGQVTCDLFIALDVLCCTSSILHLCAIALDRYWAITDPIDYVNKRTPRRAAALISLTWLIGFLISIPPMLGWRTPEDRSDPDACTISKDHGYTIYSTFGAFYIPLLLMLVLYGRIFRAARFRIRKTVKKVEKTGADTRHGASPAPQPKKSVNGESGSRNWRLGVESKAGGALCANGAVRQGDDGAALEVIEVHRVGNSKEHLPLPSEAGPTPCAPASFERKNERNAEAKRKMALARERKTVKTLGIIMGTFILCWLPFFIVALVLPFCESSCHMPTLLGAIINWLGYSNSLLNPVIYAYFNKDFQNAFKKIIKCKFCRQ

[10] = target: NET (Homo sapiens, UniProt P23975); conditions: cited from earlier work
[11] = target: DAT (Homo sapiens, UniProt Q01959); conditions: cited from earlier work
[12] = test system: 6-OHDA-lesioned rats, L-DOPA-induced dyskinesia; test: Experiment 2: AIMs, LID development in L-DOPA-naive hemi-parkinsonian rats; format: in vivo, rat; conditions: VZD 10 or 20 mg/kg + LD 6 mg/kg, treatment naive, 3 weeks
[13] = test system: hemi-parkinsonian rats; test: Side effects during chronic Vilazodone treatment; format: in vivo, rat
[14] = test system: 6-OHDA-lesioned rats, forelimb akinesia; test: Experiment 1: forepaw adjusting steps (FAS); format: in vivo, rat
From the text: Conti et al., 2014). […] Forepaw adjusting steps (FAS): The FAS test is a measure of forelimb akinesia performed according to previous protocols (Bishop et al., 2012; Chang et al., 1999). Data are presented as mean percent intact stepping where the sum of the total steps with the lesioned forepaw was divided by the total steps with the unlesioned forepaw multiplied by 100. Lower percent intact scores indicate greater forelimb akinesia. Prior to baseline, rats received 2 acclimation periods. On-treatment FAS was performed 60 min post-L-DOPA.

[15] = test system: striatum and DRN monoamines and metabolites; test: Experiment 1: HPLC of striatal and dorsal raphe tissue monoamines; format: in vivo, rat
Description: Rats (n=30) were rendered hemi-parkinsonian with unilateral 6-OHDA lesions of the left MFB. Three-weeks post-lesion, animals were divided into 2 equally disabled groups, measured by forepaw adjusting steps (FAS, see below). One group (n=8) began receiving 14 days of daily vehicle (0.9% NaCl+0.1% ascorbic acid) and the other (n=22) received L-DOPA methyl ester (6 mg/kg, s.c.; Sigma)+DL-serine 2-(2,3,4-trihydroxybenzyl) hydrazine hydrochloride (benserazide; 15 mg/kg, s.c.; Sigma), hereafter L-DOPA, dissolved in vehicle at a volume of 1 mL/kg. […] Thereafter, L-DOPA-treated animals with Axial, Limb, and Orolingual (ALO) AIMs (see description below, FIG. 1A)<30 were excluded from the study and the remaining L-DOPA-treated animals were divided into 3 equally dyskinetic groups. […] Daily injections continued over 23 days, with behavior assayed on Days 15, 22, 29, and 36. On Day 37, animals were killed 60 min post-treatment. Left and right dorsal striata and DRN were dissected and flash frozen for HPLC analyses.
High-performance liquid chromatography (HPLC): HPLC, a method for semi-automated catecholamine analysis with coulometric detection, was performed according to prior protocols (Bishop et al., 2009) to determine the tissue levels of monoamines, their metabolites, and monoamine turnover in the striatum and DRN. The limit of detection for DOPAC, DA, 5-hydroxyindoleacetic acid (5-HIAA) and 5-HT was 10^−10 M. Final oxidation current values were plotted on a standard curve from 10^−6 M to 10^−9 M and expressed as pg of monoamine or metabolite per mg of tissue unless otherwise specified.
On the final treatment day, animals were sacrificed 60 min post-LD treatment and left and right striata and dorsal raphe nucleus (DRN) were collected for high performance liquid chromatography (HPLC) analysis. Values (means±standard mean error) are expressed as picograms of monoamine or metabolite per milligram wet tissue weight. Turnover estimates were determined by dividing a subject's metabolite value by its corresponding monoamine.

[16] = test system: 6-OHDA-lesioned rats, forelimb akinesia; test: Example 2: stepping test; format: in vivo, rat; conditions: 60 minutes post L-DOPA
Description: 6-OHDA-induced dopaminergic lesions: Adult male Sprague-Dawley rats were randomly assigned to groups receiving either a 6-OHDA or sham lesion. All rats received desipramine (10 mg/kg i.p.) 30 min prior to surgery to prevent the lesioning of norepinephrine neurons by 6-OHDA. A single injection of 6-OHDA (8 μg of 6-OHDA free base in 4 p of 0.1% ascorbic acid) was delivered into the right medial forebrain bundle (coordinates taken from bregma: −4.3 mm AP, 1.6 mm ML, −8.3 mm DV). The same experimental treatment was performed for the sham-operated rats using vehicle (4 μl of 0.1% ascorbic acid). A standard stepping test was used to evaluate the effectiveness of the 6-OHDA lesion.
Rats were treated for 5 consecutive days/week (Mon-Fri), for 2 weeks. On the second day of each week, stepping tests were performed prior to drug administration, and 60 minutes post L-DOPA treatment.

[17] = test system: 6-OHDA-lesioned rats, forelimb akinesia; test: Experiment 2: forepaw adjusting steps (FAS); format: in vivo, rat
From the text: Forepaw adjusting steps (FAS): The FAS test is a measure of forelimb akinesia performed according to previous protocols (Bishop et al., 2012; Chang et al., 1999). Data are presented as mean percent intact stepping where the sum of the total steps with the lesioned forepaw was divided by the total steps with the unlesioned forepaw multiplied by 100. Lower percent intact scores indicate greater forelimb akinesia. Prior to baseline, rats received 2 acclimation periods. On-treatment FAS was performed 60 min post-L-DOPA.

[18] = test system: striatal c-Fos, PPD, PPE, PPT, 5-HT1AR mRNA; test: Experiment 2: real-time RT-PCR of striatal gene expression
[19] = test system: 6-OHDA-lesioned rats, L-DOPA-induced dyskinesia; test: Experiment 1: AIMs, established LID in L-DOPA-primed hemi-parkinsonian rats; format: in vivo, rat
[20] = test system: extracellular levels of norepinephrine or dopamine; conditions: 1 and 10 mg/kg; cited from earlier work
[21] = test system: L-DOPA-primed 6-OHDA-lesioned rats; 5-HT1AR
[22] = target: TRPV1 ion channel (Homo sapiens, UniProt Q8NER1); conditions: depending on the pharmacological assay; cited from earlier work
[23] = target: SERT (Homo sapiens, UniProt P31645); conditions: clinically effective dose range 5-20 mg/day; cited from earlier work
SERT, sequence (P31645 whole entry, species assumed): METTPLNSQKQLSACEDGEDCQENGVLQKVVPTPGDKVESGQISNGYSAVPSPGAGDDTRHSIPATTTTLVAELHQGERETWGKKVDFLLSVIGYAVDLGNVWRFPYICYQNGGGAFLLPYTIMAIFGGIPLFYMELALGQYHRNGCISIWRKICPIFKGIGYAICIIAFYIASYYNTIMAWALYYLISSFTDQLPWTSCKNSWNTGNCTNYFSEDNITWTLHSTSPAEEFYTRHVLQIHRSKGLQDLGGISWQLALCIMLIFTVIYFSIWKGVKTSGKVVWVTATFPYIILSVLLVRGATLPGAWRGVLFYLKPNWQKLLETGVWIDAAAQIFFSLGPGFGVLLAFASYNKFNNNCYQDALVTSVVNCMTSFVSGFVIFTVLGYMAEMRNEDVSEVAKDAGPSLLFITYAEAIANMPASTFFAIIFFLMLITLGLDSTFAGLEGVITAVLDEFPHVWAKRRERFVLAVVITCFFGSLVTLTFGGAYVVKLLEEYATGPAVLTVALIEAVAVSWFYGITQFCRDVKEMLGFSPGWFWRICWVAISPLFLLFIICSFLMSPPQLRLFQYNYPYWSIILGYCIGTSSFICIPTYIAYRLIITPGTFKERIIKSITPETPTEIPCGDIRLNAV

NET, sequence (P23975 whole entry): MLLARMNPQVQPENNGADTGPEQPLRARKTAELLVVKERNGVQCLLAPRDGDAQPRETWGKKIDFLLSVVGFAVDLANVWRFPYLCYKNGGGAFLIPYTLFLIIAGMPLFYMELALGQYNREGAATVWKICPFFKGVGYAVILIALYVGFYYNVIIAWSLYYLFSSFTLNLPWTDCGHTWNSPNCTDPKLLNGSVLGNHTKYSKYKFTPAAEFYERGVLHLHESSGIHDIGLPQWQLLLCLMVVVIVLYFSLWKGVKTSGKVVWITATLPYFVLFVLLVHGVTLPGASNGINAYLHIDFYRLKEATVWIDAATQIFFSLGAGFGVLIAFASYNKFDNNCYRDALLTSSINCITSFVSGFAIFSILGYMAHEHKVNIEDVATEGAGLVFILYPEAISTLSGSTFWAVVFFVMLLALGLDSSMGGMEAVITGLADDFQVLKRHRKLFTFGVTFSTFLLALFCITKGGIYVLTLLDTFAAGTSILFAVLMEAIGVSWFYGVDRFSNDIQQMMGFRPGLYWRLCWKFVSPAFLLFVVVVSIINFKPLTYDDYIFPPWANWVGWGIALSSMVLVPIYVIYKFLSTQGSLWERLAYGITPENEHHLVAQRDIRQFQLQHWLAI
TRPV1 ion channel, sequence (Q8NER1 whole entry): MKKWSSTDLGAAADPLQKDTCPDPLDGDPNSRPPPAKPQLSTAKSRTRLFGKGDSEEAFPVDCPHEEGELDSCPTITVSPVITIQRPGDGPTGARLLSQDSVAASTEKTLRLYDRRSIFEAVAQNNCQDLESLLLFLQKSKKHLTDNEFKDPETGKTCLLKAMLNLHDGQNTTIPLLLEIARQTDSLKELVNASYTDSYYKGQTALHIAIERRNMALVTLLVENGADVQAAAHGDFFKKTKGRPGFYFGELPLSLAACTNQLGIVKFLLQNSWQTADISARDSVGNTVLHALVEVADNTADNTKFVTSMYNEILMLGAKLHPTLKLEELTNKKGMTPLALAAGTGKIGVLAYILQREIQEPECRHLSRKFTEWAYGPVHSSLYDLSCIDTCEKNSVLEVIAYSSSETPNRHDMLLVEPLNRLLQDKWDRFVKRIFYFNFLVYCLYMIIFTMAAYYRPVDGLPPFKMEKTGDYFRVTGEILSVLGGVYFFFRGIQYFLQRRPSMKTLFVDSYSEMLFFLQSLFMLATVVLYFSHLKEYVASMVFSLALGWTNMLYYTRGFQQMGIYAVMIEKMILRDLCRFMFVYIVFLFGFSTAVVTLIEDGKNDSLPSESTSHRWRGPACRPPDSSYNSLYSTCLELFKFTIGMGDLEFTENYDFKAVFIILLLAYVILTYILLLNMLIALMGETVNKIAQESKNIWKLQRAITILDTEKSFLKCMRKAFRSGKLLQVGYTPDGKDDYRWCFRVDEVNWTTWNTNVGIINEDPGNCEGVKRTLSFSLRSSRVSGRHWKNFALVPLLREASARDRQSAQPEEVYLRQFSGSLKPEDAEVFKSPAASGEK
DAT, sequence (Q01959 whole entry, species assumed): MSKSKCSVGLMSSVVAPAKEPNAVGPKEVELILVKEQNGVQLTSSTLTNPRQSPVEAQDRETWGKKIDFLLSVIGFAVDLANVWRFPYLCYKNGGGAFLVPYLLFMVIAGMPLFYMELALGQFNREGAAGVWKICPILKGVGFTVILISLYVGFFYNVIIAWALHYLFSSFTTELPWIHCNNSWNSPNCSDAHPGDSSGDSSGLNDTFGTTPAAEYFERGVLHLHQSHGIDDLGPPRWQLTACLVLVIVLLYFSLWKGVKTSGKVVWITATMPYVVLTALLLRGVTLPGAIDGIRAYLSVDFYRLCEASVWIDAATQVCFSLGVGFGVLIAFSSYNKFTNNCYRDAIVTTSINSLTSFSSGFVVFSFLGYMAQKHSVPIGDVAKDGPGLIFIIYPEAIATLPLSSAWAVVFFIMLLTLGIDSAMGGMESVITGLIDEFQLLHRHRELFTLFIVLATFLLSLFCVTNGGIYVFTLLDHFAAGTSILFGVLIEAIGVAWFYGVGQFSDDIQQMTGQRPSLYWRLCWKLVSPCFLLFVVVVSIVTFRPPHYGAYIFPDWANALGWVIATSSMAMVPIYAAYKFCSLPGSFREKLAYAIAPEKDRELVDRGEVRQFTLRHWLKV

In the case of `NC12CC3CC(CC(C3)C1)C2` [Amantadine, 1-adamantanamine], the “EC50 (plasma level reducing dyskinesia by 50%)” value [1] is listed as 1,400 ng/mL, the peak plasma concentrations ([2]; IR 100 mg twice a day) is listed as < 1,000 ng/mL and the half-life ([2]; in vivo) is listed as “around 17 hours”. For the same compound, the maximum plasma concentration ([2]; single dose 100 mg) was “around 220 ng/mL”, the side effects ([3]; AMA 60 mg/kg) was “appeared to produce side effects” and the “ALO AIMs” value ([3]; AMA 20, 40, 60 mg/kg + L-DOPA) was “did not appear to alter AIMs”. The “ALO AIMs, combined amantadine and vilazodone” value [3] was “counteracted by Amantadine”, the “ALO AIMs, LID development” value [4] was “initially reduced AIMs, but this suppression diminished over time” and the “% intact stepping” value [5] was “may reduce improvements”.
In the case of `Cl.N#Cc1ccc2[nH]cc(CCCCN3CCN(c4ccc5oc(C(N)=O)cc5c4)CC3)c2c1` [Vilazodone, 5-{4-[4-(5-cyano-3-indolyl)-butyl]-1-piperazinyl}-benzofuran-2-carboxamide hydrochloride], the “ALO AIMs” value [6] is reported as “significantly reduced ALO AIMs”, the “spike probability and onset latency” value [7] is reported as “normalizes spike probability and onset latency” and the LIDs severity [8] is reported as “most significant effect on attenuating LIDs”. For the same compound, the “increase of [35S]GTPyS binding compared to vehicle” value [9] was “fourfold”, the IC50 [10] was 0.056 µM and the IC50 [11] was 0.037 µM. For the same compound, the “ALO AIMs, LID development” value [12] was “significantly attenuated the development of LID”, the “side effects, like 5-HT syndrome” value [13] was “weren't observed at any time point” and the “FAS motor performance vs baseline” value ([14]; LD 6 mg/kg alone or with VZD 10/20 mg/kg) was “emerged 7 days later”. For the same compound, the “FAS stepping vs VZD(0)+LD(6)” value ([14]; VZD 20 mg/kg, Day 29, transient) was “depressed stepping”, the 5-HIAA ([15]; Dorsal Raphe Nucleus, VZD(10)+LD(6) mg/kg s.c.) was 12541 pg/mg wet tissue weight and the “5-HT Turnover” value ([15]; Striatum Lesion, VZD(10)+LD(6) mg/kg s.c.) was 8.38. The “DRN 5-HT” value ([15]; VZD 10 mg/kg + LD) was “significantly increased DRN 5-HT”, the “striatal 5-HIAA” value ([15]; VZD 20 mg/kg) was “attenuated 5-HIAA compared to all other treatments” and the “striatal 5-HT Turnover” value ([15]; VZD 20 mg/kg vs VZD(0)+LD(0)) was “reduced 5-HT Turnover”. For the same compound, the “DRN DA Turnover” value ([15]; VZD 10 or 20 mg/kg + LD) was “DA Turnover was attenuated”, the “DRN 5-HT Turnover” value ([15]; both doses VZD + LD) was “attenuated 5-HT Turnover” and the “DA in lesioned striatum (planned comparisons)” value ([15]; both doses VZD vs VZD vehicle groups) was “significantly increased DA in the lesioned striatum”. The “forelimb akinesia / L-DOPA therapeutic (prokinetic) efficacy” value [16] was “no effects on forelimb akinesia or L-DOPA-induced prokinetic effects”, the “ALO AIMs, combined amantadine and vilazodone” value [3] was “continued to reduced AIMs” and the “ALO AIMs” value ([3]; VZD 5 mg/kg + L-DOPA) was “moderately”. The “ALO AIMs” value ([3]; VZD 1 and 2.5 mg/kg + L-DOPA) was “modestly reduced AIMs”, the “ALO AIMs, LID development” value [4] was “persistently reduced AIMs” and the “reduction of development and expression of LID, compared with Amantadine” value ([4]; validated rodent model) was “more effective than Amantadine”. The FAS vs baseline ([17]; LD 6 mg/kg alone or with VZD) was “significant increases in stepping, relative to baseline, from Day 8 thereafter”, the “FAS vs VZD(0)+LD(6)” value ([17]; VZD 10 mg/kg + LD 6 mg/kg, by Day 15) was “significantly enhanced the pro-motor effects of L-DOPA” and the “striatal PPE mRNA” value ([18]; lesioned striata, LD 6 mg/kg, VZD 20 mg/kg, day 23) was “modestly, though significantly reduced”. The “striatal PPD mRNA” value ([18]; lesioned striata, LD 6 mg/kg, VZD 10/20 mg/kg, day 23) was “dose-dependently attenuated”, the “striatal c-Fos mRNA” value ([18]; lesioned striata, LD 6 mg/kg, VZD 10 or 20 mg/kg, day 23) was “diminished by either dose” and the “striatal 5-HT1AR mRNA” value ([18]; rat, in vivo) was “did not affect striatal 5-HT1AR mRNA”. For the same compound, the “striatal PPT mRNA” value ([18]; rat, in vivo) was “reduced striatal PPT”, the “ALO AIMs, established LID” value ([19]; VZD 10 or 20 mg/kg s.c. 5 min before LD 6 mg/kg, vs VZD(0)+LD(6), from first day, persisted throughout treatment) was “dramatically reduced AIMs” and the “anti-LID efficacy, 20 mg/kg vs 10 mg/kg” value ([19]; dissipated after the first week) was “initially had greater anti-LID efficacy than the lower dose”. For the same compound, the “change in extracellular levels of norepinephrine or dopamine” value [20] was “no change”, the “LID duration (time course)” value ([21]; VZD 10 mg/kg + LD 6 mg/kg) was “little effect on LID duration” and the “peak dyskinesia (time course)” value ([21]; VZD 10 mg/kg + LD 6 mg/kg) was “reduced peak dyskinesia”. For the same compound, the “summed ALO AIMs” value ([21]; VZD 10 mg/kg, WAY 0.5 mg/kg, LD 6 mg/kg s.c.) was “significantly reduced ALO AIMs”.
For `Oc1cc2c(cc1O)CN(C(=S)NCCc1ccc(Cl)cc1)CCC2` [Capsazepine], the IC50 [22] is given as “nanomolar to low micromolar range”.
For `Cc1ccc(Sc2ccccc2N2CCNCC2)c(C)c1` [Vortioxetine], the SERT occupancy [23] is listed as 50 to 80%.
